Experimental data published in article PMC12472551, “Comprehensive Identification and Mechanistic Evaluation of Novel DHODH Inhibitors as Potent Broad-Spectrum Antiviral Agents” (Pharmaceuticals, 2025).
Like-named read-outs stand apart in the source and are kept apart here.

Columns and labels:
human lung organoids = conditions: viral replication in human lung organoids; cited from earlier work
[1] = tested on: influenza A virus (A/PR/8/34(H1N1)); test: microbe, parasite or virus in culture; assay type: cell-based
[2] = MTT cytotoxicity assay in MDCK cells; assay type: cell-based, Canine; conditions: dog
Description: (§1) The cytotoxic effects of the test compounds on MDCK and Vero cell lines were evaluated utilizing the 3-(4,5-dimethylthiazol-2-yl)-2,5-diphenyltetrazolium bromide (MTT) assay. In brief, cells were seeded in 96-well plates and maintained in complete growth medium. After an overnight incubation period, this medium was aspirated and replaced with serum-free DMEM containing the compounds at predetermined concentrations. After 48 h of treatment, MTT dissolved in PBS was introduced into each well to achieve a final concentration of 0.5 mg/mL. Subsequent incubation at 37 °C for 2 h facilitated formazan crystal formation. The medium was then aspirated, and DMSO was added to solubilize the formazan crystals. Absorbance measurements at 540 nm were conducted using a CLARIOstar microplate reader.

human DHODH = human DHODH (Homo sapiens, UniProt Q02127); test: Surface plasmon resonance binding
SARS-CoV-2 = test: microbe, parasite or virus in culture; assay type: cell-based; conditions: Severe acute respiratory syndrome coronavirus 2
[3] = MTT cytotoxicity assay in Vero cells; assay type: cell-based; conditions: African green monkey, Vero-ACE2-TMPRSS2 cells
Description: A Vero-ACE2-TMPRSS2 (labelled ‘Vero’ hereafter) cell line was used for SARS-CoV-2.
as §1

DHODH = conditions: cited from earlier work
[4] = read-out: CC50 (hematological toxicity); cited from earlier work
DENV and ZIKV viruses = tested on: DENV and ZIKV viruses; parameters: method as in PMID 33716051; conditions: cited from earlier work
[5] = Influenza A virus, MDCK, A/PR/8/34(H1N1), MDCK cells, plaque reduction, read-out: IC50
[6] = SARS-CoV-2, Vero-ACE2-TMPRSS2 cells, plaque assay, read-out: IC50

human DHODH, sequence (Q02127 whole entry): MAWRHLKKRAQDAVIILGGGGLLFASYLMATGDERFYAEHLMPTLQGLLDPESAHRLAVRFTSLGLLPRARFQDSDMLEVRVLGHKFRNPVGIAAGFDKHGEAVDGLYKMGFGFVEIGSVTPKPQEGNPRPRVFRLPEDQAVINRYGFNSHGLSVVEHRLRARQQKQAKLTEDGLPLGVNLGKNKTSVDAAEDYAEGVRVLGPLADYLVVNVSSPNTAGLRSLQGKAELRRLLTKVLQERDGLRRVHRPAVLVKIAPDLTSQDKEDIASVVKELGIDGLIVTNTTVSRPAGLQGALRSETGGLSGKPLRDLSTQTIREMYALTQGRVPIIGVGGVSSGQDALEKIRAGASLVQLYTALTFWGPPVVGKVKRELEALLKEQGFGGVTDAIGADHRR

Row | SMILES | IC50 [1, 5] | IC50 ([1]; Influenza A virus, MDCK) | CC50 at 48 h [2] | IC50 (SARS-CoV-2; [6]) | CC50 at 48 h [3] | further results
1 | CCn1c(CO)nn(-c2cc(O[C@@H](C)C(F)(F)F)c(C(=O)Nc3c(F)cccc3Cl)cc2F)c1=O [BAY 2402234] | – | – | – | – | – | EC50 (human lung organoids): 0.032 µM
2 | COC(=O)OCOc1c2n(ccc1=O)N([C@@H]1c3ccccc3SCc3c1ccc(F)c3F)[C@@H]1COCCN1C2=O [Baloxavir marboxil, reference compound] | 0.00967 ± 0.00112 µM | – | – | – | – | –
3 | CC1(c2ccccc2)CC(C)(C)N(C(=O)CSc2nc(O)cc(CSc3ccc(Cl)cc3)n2)c2ccccc21 (centres unmarked) [Compound 1] | – | 36.8 ± 2.36 µM | 34.5 ± 1.58 µM | – | – | –
4 | O=C(CCCCCn1c(=O)c2sccc2n(CC(=O)NCCC2=CCCCC2)c1=O)NCc1ccc(F)cc1 [Compound 2] | – | > 200 µM | > 200 µM | – | – | –
5 | COC(=O)c1ccc(NC(=O)CSc2nc(-c3sc(-c4ccccc4)nc3C)cc(=O)[nH]2)cc1 [Compound 3] | – | > 200 µM | > 200 µM | – | – | –
6 | CCCCc1nn2c(=O)cc(CSc3nc4ccc(NC(C)=O)cc4s3)nc2s1 [Compound 4] | – | 66.2 ± 6.29 µM | > 200 µM | – | – | –
7 | O=C(COc1ccccc1)Nc1ccc(N2CCN(c3ccccc3F)CC2)cc1C(=O)O [Compound 5] | – | > 200 µM | > 200 µM | – | – | –
8 | CC(=O)c1ccc(N2CCN(C(=O)c3cc4c(=O)n(C)c5ccccc5c4s3)CC2)cc1 [Compound 6] | – | 4.85 ± 0.58 µM | > 200 µM | – | – | –
9 | O=C(Cc1cccs1)Nc1ccc(N2CCN(c3ccccc3Cl)CC2)cc1C(=O)O [Compound 7] | – | 17.2 ± 1.19 µM | > 200 µM | – | – | –
10 | CN1C(=O)c2ccccc2Sc2cc(-c3noc(CNC(=O)Cc4ccc(Cl)cc4)n3)ccc21 [Compound 8] | – | 13.4 ± 2.45 µM | > 200 µM | – | – | –
11 | Cc1ccc(-c2onc3ccc(-c4cc(C(=O)O)c5ccccc5n4)cc23)cc1 [Compound 9] | – | 7.35 ± 1.65 µM | > 200 µM | – | – | –
12 | Cc1ccc(-c2onc3ccc(-c4cc(C(=O)O)c5cc(C)ccc5n4)cc23)cc1 [Compound 10] | – | 1.75 ± 0.28 µM | > 200 µM | – | – | –
13 | Cc1cc2nc(C)c(C(=O)O)n2cc1-c1ccc(-c2ccccc2)cc1 [Compound 11, 6-([1,1′-Biphenyl]-4-yl)-2,7-dimethylimidazo[1,2-a]pyridine-3-carboxylic acid] | 0.85 ± 0.05 µM | – | > 200 µM | 3.6 ± 0.67 µM | > 200 µM | kon (human DHODH; read-out: Ka, association constant): 4.83e+06 M⁻¹ s⁻¹; koff (human DHODH; read-out: Kdis, dissociation constant): 29.3 s⁻¹
14 | Cc1nc2ccc(-c3ccc(-c4ccccc4)cc3)cn2c1C(=O)O [Compound 12, 6-([1,1′-Biphenyl]-4-yl)-2-methylimidazo[1,2-a]pyridine-3-carboxylic acid] | > 100 µM | – | > 200 µM | > 200 µM | > 200 µM | IC50 ([1]; A/PR/8/34(H1N1), MDCK cells, plaque reduction, read-out: IC50): 100 ± 1.13 µM
15 | Cc1nc2ncc(-c3ccc(-c4ccccc4)cc3)cn2c1C(=O)O [Compound 13, 6-([1,1′-Biphenyl]-4-yl)-2-methylimidazo [1,2-a]pyrimidine-3-carboxylic acid] | 1.08 ± 0.26 µM | – | > 200 µM | 105 ± 5.19 µM | > 200 µM | –
16 | CCOC(=O)c1c(C)nc2ccc(-c3ccc(-c4ccccc4)cc3)cn12 [Compound 14, Ethyl 6-([1,1′-biphenyl]-4-yl)-2-methylimidazo[1,2-a]pyridine-3-carboxylate] | > 200 µM | – | > 200 µM | > 200 µM | > 200 µM | –
17 | CCOC(=O)c1c(C)nc2cc(C)c(-c3ccc(-c4ccccc4)cc3)cn12 [Compound 15, Ethyl 6-([1,1′-biphenyl]-4-yl)-2,7-dimethylimidazo[1,2-a]pyridine-3-carboxylate] | > 200 µM | – | > 200 µM | > 200 µM | > 200 µM | –
18 | CCOC(=O)c1c(C)nc2ncc(-c3ccc(-c4ccccc4)cc3)cn12 [Compound 16, Ethyl 6-([1,1′-biphenyl]-4-yl)-2-methylimidazo[1,2-a]pyrimidine-3-carboxylate] | > 200 µM | – | > 200 µM | > 200 µM | > 200 µM | –
19 | C/C(O)=C(\C#N)C(=O)Nc1ccc(C(F)(F)F)cc1 [Compound 17, teriflunomide, reference compound] | 35 ± 3.33 µM | – | 181 ± 16.4 µM | 26.1 ± 4.32 µM | > 200 µM | IC50 (DHODH; competing with ubiquinone, read-out: IC50 (DHODH inhibition)): […]
20 | Cc1c(-c2ccc(-c3ccccc3F)cc2)nc2ccc(F)cc2c1C(=O)O [Compound 18, brequinar] | – | – | – | – | – | Ka, association constant (human DHODH; SPR): 1.31 × 10^6 M^−1S^−1; CC50 [4]: > 5 µM; EC50 (DENV and ZIKV viruses): 0.017 to 0.061 µM
21 | CCC(CC)COC(=O)[C@H](C)N[P@](=O)(OC[C@H]1O[C@@](C#N)(c2ccc3c(N)ncnn23)[C@H](O)[C@@H]1O)Oc1ccccc1 [Remdesivir, reference compound] | – | – | – | – | – | IC50 (SARS-CoV-2): 4.95 ± 0.78 µM
22 | COc1cccc(-c2ccc(NC(=O)C3=C(C(=O)O)CCC3)c(F)c2)c1 [vidofludimus] | – | – | – | – | – | IC50 (DHODH; enhanced selectivity, read-out: IC50): 0.041 to 0.16 µM
